Conditions: for Change in contents (per capsule): Initial content: cosurfactant content in soft capsule
Source text: The membrane permeation property of dimethylisosorbide over the storage period at the room temperature was examined for the soft capsules prepared using dimethylisosorbide (ARLASOLVE® DMI) as a cosurfactant according to the present invention and then compared with the membrane permeation properties of ethanol, propylene glycol, Transcutol (diethylene glycol monoethyl ether) and Glycofurol (tetrahydrofurfuryl alcohol polyethylene glycol ether). The content of the cosurfactant in each soft capsule preparation was analyzed by gas chromatography. The components and their constitutional ratios in the compositions used in this experiment are given in the following Table 1 and the experiment results are given in the following Table 2.
Note: Conditions of gas chromatography for each cosurfactant
Column: Ultra 2 (Cross-linked 2% phenylmethyl silicone gun phase, 25 m×0.32 mm, thickness 0.52 μm)
Column temperature: 230° C. (Isothermal)
Detector: FID (Temperature: 270° C.)
Injection temperature: 275° C.
Carrier gas: He (Partition ratio 80:1)
Internal standard: Octyl alcohol
Column: HP-20M (Carbowax 20M) (25 m×0.32 mm, film thickness 0.3 μm)
Column temperature: 30° C. (Isothermal)
Detector: FID (Temperature: 200° C.)
Injection temperature: 150° C.
Internal standard: Diethyl ether
Column temperature: 180° C. (Isothermal)
Detector: FID (Temperature: 240° C.)
Injection temperature: 240° C.
Internal standard: Pentadecanoic acid methyl ester
Column: Ultra 2 (Cross-linked 5% phenylmethyl silicone gun phase, 25 m×0.32 mm, thickness 0.52 μm)
Injection temperature: 270° C.
Detector: FID (Temperature: 270° C.) p1 Injection temperature: 270° C.
Internal standard: Dimethylisosorbide

## CCOCCOCCO [Transcutol, diethylene glycol monoethyl ether]
  Change in contents (per capsule): Initial content: 19.8
Room temperature
  Change in contents (per capsule): Storage period 2 days: 7.3
  Change in contents (per capsule): Storage period 14 days: 2.7

## tetrahydrofurfuryl alcohol polyethylene glycol ether [Glycofurol]
  Change in contents (per capsule): Initial content: 19.8
Room temperature
  Change in contents (per capsule): Storage period 2 days: 8.2
  Change in contents (per capsule): Storage period 14 days: 3.2

## CC(O)CO (stereo not drawn) [Propylene glycol, propylene glycol]
  Change in contents (per capsule): Initial content: 19.8
Room temperature
  Change in contents (per capsule): Storage period 2 days: 3.6
Room temperature, 5 days
  Change in contents (per capsule): Storage period 5 days: 0.9

— patent US5639474A (Hanmi Pharm. Ind., Ltd., priority 1993, dated 1997)
